{"source": "DBAASP", "assay_in_all_cases": "≥ marks a high value that may be exact or a test limit, other limits are often not marked, values filed in µg/mL are converted to µM", "key": {"[1]": {"tested_on": "Staphylococcus aureus ATCC 25923"}, "[2]": {"tested_on": "Staphylococcus aureus BSF FBCB1313"}, "Candida albicans PEEC 2": {"tested_on": "Candida albicans PEEC 2"}, "[3]": {"tested_on": "Enterococcus faecalis ATCC 29212"}, "[4]": {"tested_on": "Pseudomonas aeruginosa ATCC 27853"}, "[5]": {"tested_on": "Escherichia coli ATCC 35218"}, "Candida albicans DBFIQ 1": {"tested_on": "Candida albicans DBFIQ 1"}, "[6]": {"tested_on": "Candida tropicalis DBFIQ 3"}, "Escherichia coli": {"tested_on": "Escherichia coli"}, "[7]": {"tested_on": "Bifidobacterium longum subsp. infantis"}, "Staphylococcus aureus": {"tested_on": "Staphylococcus aureus"}, "[8]": {"tested_on": "Escherichia coli ATCC 25922"}, "[9]": {"tested_on": "Candida glabrata ATCC 2001"}, "[10]": {"tested_on": "Candida tropicalis ATCC 750"}, "[11]": {"tested_on": "Staphylococcus aureus ATCC 29213"}, "[12]": {"tested_on": "Candida albicans ATCC 10231"}, "Candida krusei ATCC 6258": {"tested_on": "Candida krusei ATCC 6258"}, "[13]": {"tested_on": "Candida parapsilosis ATCC 90018"}, "[14]": {"tested_on": "Bacillus subtilis KCCM 11495"}, "[15]": {"tested_on": "Escherichia coli KCCM 11569"}, "Fusarium graminearum": {"tested_on": "Fusarium graminearum"}, "[16]": {"tested_on": "Escherichia coli ATCC 8739"}, "[17]": {"tested_on": "Escherichia coli ATCC 35150"}, "[18]": {"tested_on": "Salmonella typhimurium DSM 19587"}, "Bacillus cereus DSM 4222": {"tested_on": "Bacillus cereus DSM 4222"}, "[19]": {"tested_on": "Pseudomonas putida DSM 291"}, "[20]": {"tested_on": "Pseudomonas fluorescens DSM 50124"}, "[21]": {"tested_on": "Staphylococcus aureus ATCC 43300"}, "[22]": {"tested_on": "Staphylococcus aureus ATCC 16558"}, "[23]": {"tested_on": "Clostridium perfringens ATCC 13124"}, "[24]": {"tested_on": "Escherichia coli NEB5alpha"}, "[25]": {"tested_on": "Enterobacter cloacae ATCC 13047"}, "[26]": {"tested_on": "Staphylococcus aureus ATCC 3300"}, "[27]": {"tested_on": "Escherichia coli O157:H7 ATCC 35150"}, "[28]": {"tested_on": "Staphylococcus aureus RN4220"}, "[29]": {"tested_on": "Listeria monocytogenes SLCC 5581"}, "[30]": {"tested_on": "Salmonella enterica subsp. enterica serovar Typhimurium ATCC 14028"}, "Listeria monocytogenes": {"tested_on": "Listeria monocytogenes"}, "[31]": {"tested_on": "Salmonella enterica subsp. enterica serovar Typhimurium DSM 554"}, "[32]": {"tested_on": "Acinetobacter baumannii ATCC 17978"}, "[33]": {"tested_on": "Bacillus subtilis ATCC 6633"}, "[34]": {"tested_on": "Listeria monocytogenes ATCC 19115"}, "[35]": {"tested_on": "Klebsiella pneumoniae ATCC 13883"}, "[36]": {"tested_on": "Enterococcus faecium ATCC 19434"}, "[37]": {"tested_on": "Staphylococcus aureus ATCC 6538"}, "[38]": {"tested_on": "Escherichia coli NCTC 13452"}, "[39]": {"tested_on": "Pseudomonas aeruginosa ATCC 10145"}, "[40]": {"tested_on": "Staphylococcus aureus DSM 2569"}, "[41]": {"tested_on": "Clostridium perfringens DSM 11784"}, "[42]": {"tested_on": "Bacillus subtilis ATCC 6051"}, "Bacillus cereus DSM 4312": {"tested_on": "Bacillus cereus DSM 4312"}}}
{"smiles": "CC(C)C[C@H](NC(=O)[C@H](CCCCN)NC(=O)[C@H](CCCCN)NC(=O)[C@H](Cc1ccccc1)NC(=O)[C@H](CC(C)C)NC(=O)[C@H](CCCCN)NC(=O)[C@H](CCCCN)NC(=O)[C@H](Cc1ccccc1)NC(=O)[C@H](CC(C)C)NC(=O)[C@@H](N)CCCCN)C(=O)N[C@@H](Cc1ccccc1)C(=O)N[C@@H](CCCCN)C(N)=O", "note": "[KLFKKLFKKLFK]", "values": [{"measurement": "MIC", "setting": "[1]", "value": 2.6, "unit": "µM"}, {"measurement": "MIC", "setting": "[2]", "value": 10.2, "unit": "µM"}, {"measurement": "MIC", "setting": "Candida albicans PEEC 2", "value": "≥ 40.8", "unit": "µM"}, {"measurement": "MIC", "setting": "[3]", "value": 5.1, "unit": "µM"}, {"measurement": "MIC", "setting": "[4]", "value": 2.6, "unit": "µM"}, {"measurement": "MIC", "setting": "[5]", "value": 5.1, "unit": "µM"}, {"measurement": "MIC", "setting": "Candida albicans DBFIQ 1", "value": "≥ 40.8", "unit": "µM"}, {"measurement": "MIC", "setting": "[6]", "value": "≥ 81.7", "unit": "µM"}]}
{"smiles": "CC[C@H](C)[C@H](NC(=O)[C@@H]1CCCN1C(=O)[C@H](CC(N)=O)NC(=O)[C@H](Cc1cnc[nH]1)NC(=O)[C@@H](NC(=O)[C@@H]1CCCN1C(=O)[C@H](C)NC(=O)[C@@H](N)CC(C)C)C(C)C)C(=O)O", "note": "[LAPVHNPI]", "values": [{"measurement": "MIC", "setting": "Escherichia coli", "value": 3490, "unit": "µM"}, {"measurement": "MIC", "setting": "[7]", "value": "≥ 3490", "unit": "µM"}, {"measurement": "MIC", "setting": "Staphylococcus aureus", "value": 3490, "unit": "µM"}]}
{"smiles": "CC[C@H](C)[C@H](NC(=O)CN)C(=O)N[C@@H](CC(C)C)C(=O)N[C@@H](CC(=O)O)C(=O)N[C@H](C(=O)N[C@@H](CCCCN)C(=O)N[C@@H](CC(N)=O)C(=O)N[C@@H](CCCCN)C(=O)N[C@H](C(=O)N[C@@H](CO)C(=O)N[C@@H](CC(N)=O)C(=O)N[C@@H](CC(C)C)C(=O)N[C@@H](Cc1ccccc1)C(=O)N[C@@H](CCCCN)C(=O)N[C@@H](CCCCN)C(=O)N[C@H](C(=O)N[C@@H](CCCCN)C(N)=O)[C@@H](C)CC)C(C)C)[C@@H](C)CC", "note": "[GILDIKNKVSNLFKKIK]", "values": [{"measurement": "MIC", "setting": "[8]", "value": "> 130", "unit": "µM"}, {"measurement": "MIC", "setting": "[9]", "value": "≥ 500", "unit": "µM"}, {"measurement": "MIC", "setting": "[10]", "value": "≥ 500", "unit": "µM"}, {"measurement": "MIC", "setting": "[11]", "value": "> 130", "unit": "µM"}, {"measurement": "MIC", "setting": "[12]", "value": 250, "unit": "µM"}, {"measurement": "MIC", "setting": "Candida krusei ATCC 6258", "value": "≥ 62.5", "unit": "µM"}, {"measurement": "MIC", "setting": "[4]", "value": "> 130", "unit": "µM"}, {"measurement": "MIC", "setting": "[13]", "value": "≥ 500", "unit": "µM"}]}
{"smiles": "CC(C)C[C@H](NC(=O)CNC(=O)[C@H](Cc1cnc[nH]1)NC(=O)[C@H](Cc1cnc[nH]1)NC(=O)[C@H](CC(C)C)NC(=O)[C@H](CC(C)C)NC(=O)[C@H](C)NC(=O)[C@H](CC(N)=O)NC(=O)[C@H](CC(C)C)NC(=O)[C@@H](N)Cc1c[nH]c2ccccc12)C(=O)N[C@@H](CC(N)=O)C(=O)N[C@@H](CS)C(=O)N[C@@H](C)C(=O)N[C@@H](CCCCN)C(=O)NCC(N)=O", "note": "[WLNALLHHGLNCAKG]", "values": [{"measurement": "MIC", "setting": "[14]", "value": "≥ 38.9", "unit": "µM"}, {"measurement": "MIC", "setting": "[15]", "value": "≥ 38.9", "unit": "µM"}]}
{"smiles": "CC(C)C[C@H](NC(=O)[C@@H](N)CCCCN)C(=O)N[C@@H](CS)C(=O)N[C@@H](CCC(=O)O)C(=O)N[C@@H](CCCCN)C(=O)N1CCC[C@H]1C(=O)N[C@@H](CO)C(=O)N[C@@H](CCCCN)C(=O)N[C@H](C(=O)N[C@@H](Cc1c[nH]c2ccccc12)C(=O)N[C@@H](Cc1ccccc1)C(=O)NCC(=O)N[C@@H](CC(N)=O)C(=O)N[C@@H](CS)C(=O)NCC(=O)N[C@@H](CC(N)=O)C(=O)N1CCC[C@H]1C(=O)N[C@@H](CCCN=C(N)N)C(=O)N[C@@H](Cc1cnc[nH]1)C(=O)N[C@@H](CS)C(=O)NCC(=O)O)[C@@H](C)O", "note": "[KLCEKPSKTWFGNCGNPRHCG]", "values": [{"measurement": "MIC", "setting": "Fusarium graminearum", "value": "≥ 32", "unit": "µM"}]}
{"smiles": "CC[C@H](C)[C@H](NC(=O)[C@@H](N)CCCN=C(N)N)C(=O)N[C@@H](CCCCN)C(=O)N[C@H](C(=O)N[C@H](C(=O)N[C@H](C(=O)N[C@@H](CO)C(=O)N[C@@H](Cc1ccccc1)C(=O)N[C@@H](CC(=O)O)C(=O)N[C@@H](CC(C)C)C(=O)N1CCC[C@H]1C(=O)N[C@@H](C)C(=O)N[C@@H](CC(C)C)C(=O)N[C@@H](CCCN=C(N)N)C(=O)N[C@@H](Cc1c[nH]c2ccccc12)C(=O)N[C@@H](CC(C)C)C(=O)N[C@@H](CCCCN)C(=O)N[C@@H](CC(C)C)C(=O)O)[C@@H](C)O)C(C)C)[C@@H](C)O", "note": "[RIKTVTSFDLPALRWLKL]", "values": [{"measurement": "MIC", "setting": "[16]", "value": "≥ 371", "unit": "µM"}, {"measurement": "MIC", "setting": "[1]", "value": "> 464", "unit": "µM"}, {"measurement": "MIC", "setting": "[17]", "value": "≥ 500", "unit": "µM"}, {"measurement": "MIC", "setting": "[18]", "value": "≥ 1000", "unit": "µM"}, {"measurement": "MIC", "setting": "Bacillus cereus DSM 4222", "value": "≥ 1000", "unit": "µM"}, {"measurement": "MIC", "setting": "[19]", "value": "≥ 125", "unit": "µM"}, {"measurement": "MIC", "setting": "[20]", "value": "≥ 500", "unit": "µM"}, {"measurement": "MIC", "setting": "[21]", "value": "> 464", "unit": "µM"}, {"measurement": "MIC", "setting": "[22]", "value": "≥ 1160", "unit": "µM"}, {"measurement": "MIC", "setting": "[23]", "value": "≥ 125", "unit": "µM"}, {"measurement": "MIC", "setting": "[24]", "value": "≥ 62.5", "unit": "µM"}, {"measurement": "MIC", "setting": "[25]", "value": "≥ 464", "unit": "µM"}, {"measurement": "MIC", "setting": "[26]", "value": "≥ 500", "unit": "µM"}, {"measurement": "MIC", "setting": "[27]", "value": "≥ 371", "unit": "µM"}, {"measurement": "MIC", "setting": "[28]", "value": "≥ 1160", "unit": "µM"}, {"measurement": "MIC", "setting": "[29]", "value": "≥ 500", "unit": "µM"}, {"measurement": "MIC", "setting": "[30]", "value": "> 464", "unit": "µM"}, {"measurement": "MIC", "setting": "Listeria monocytogenes", "value": "≥ 250", "unit": "µM"}, {"measurement": "MIC", "setting": "[31]", "value": "≥ 1000", "unit": "µM"}, {"measurement": "MIC", "setting": "[32]", "value": "≥ 464", "unit": "µM"}, {"measurement": "MIC", "setting": "[33]", "value": "≥ 1160", "unit": "µM"}, {"measurement": "MIC", "setting": "[34]", "value": "≥ 1160", "unit": "µM"}, {"measurement": "MIC", "setting": "[35]", "value": "≥ 464", "unit": "µM"}, {"measurement": "MIC", "setting": "Escherichia coli", "value": "> 464", "unit": "µM"}, {"measurement": "MIC", "setting": "[36]", "value": "≥ 464", "unit": "µM"}, {"measurement": "MIC", "setting": "[37]", "value": "> 1160", "unit": "µM"}, {"measurement": "MIC", "setting": "[38]", "value": "≥ 125", "unit": "µM"}, {"measurement": "MIC", "setting": "[39]", "value": "≥ 464", "unit": "µM"}, {"measurement": "MIC", "setting": "[40]", "value": "≥ 500", "unit": "µM"}, {"measurement": "MIC", "setting": "[41]", "value": "≥ 1000", "unit": "µM"}, {"measurement": "MIC", "setting": "[42]", "value": 15.6, "unit": "µM"}, {"measurement": "MIC", "setting": "Bacillus cereus DSM 4312", "value": "≥ 1000", "unit": "µM"}]}
